The text below walks through data of patent US20110092546A1, “SUBSTITUTED BENZIMIDAZOLES FOR NEUROFIBROMATOSIS” (NOVARTIS AG, priority 2008, published 2011).

Where two headings read alike, the source gives them in different places.

In one test the test system is NF90 cells. The conditions noted are these: NF90 cells (NF1+/−); cited from earlier work.
For test [1], the system named is ST88 cells. Conditions: ST88 cells (NF1+/−); cited from earlier work.
The test system of test [2] is phospho-ERK in ST88 cells. The experiment in a line: phospho-ERK ELISA in ST88 cells. In kind it is cell-based. The text has this:
(§1) The ST88 cell line (NF1^+/−) contains elevated levels of Ras-GTP and is often used as a pre-clinical model for NF1. […] Pathway inhibition and anti-proliferative activity of RAF265 in ST88 cells.

For test [3], the system named is VEGF-induced angiogenesis in Matrigel plug. Nature of the test: VEGF-CHO Matrigel plug angiogenesis model in mice (hemoglobin, Drabkin's reagent). Conditions: treated days 1 and 4, plugs excised day 5. In kind it is in vivo. The text has this:
Due to the inhibition of VEGFR-2, RAF265 also has anti-angiogenic activity which may also provide a therapeutic benefit in treating neurofibromas. To confirm that RAF265 inhibits the growth of new blood vessels (i.e., angiogenesis) in vivo, mice were implanted with Matrigel® containing Chinese hamster ovary cells (CHO) overexpressing VEGF and then treated mice with a dose range of RAF265 or a vehicle control (days 1 and 4). In this model, VEGF expressed from the CHO cells induces angiogenesis within the Matrigel® plug. Plugs are excised on day 5 and assayed for hemoglobin using Drabkin's reagent, as a measure of the degree of angiogenesis.

Test [4] has as its system ST88 cells. The experiment in a line: Proliferation of ST88 cells. It counts as cell-based.
Text: as §1

Test [5] deals with phospho-MEK in ST88 cells. Nature of the test: phospho-MEK ELISA in ST88 cells. In kind it is cell-based.
Text: as §1

With `O=C(NOCC1CC1)c1ccc(F)c(F)c1Nc1ccc(I)cc1Cl` [CI-1040], in the test on NF90 cells, the “effect on proliferation (in words)” value is reported as “inhibited proliferation” and the “levels of phospho-ERK (in words)” value is on record as “decreased levels of phospho-ERK”. Besides, in the test with ST88 cells [1], the “effect on proliferation (in words)” value is on record as “inhibited proliferation” and the “levels of phospho-ERK (in words)” value is “decreased levels of phospho-ERK”.

In the case of `Cn1c(Nc2ccc(C(F)(F)F)cc2)nc2cc(Oc3ccnc(-c4ncc(C(F)(F)F)[nH]4)c3)ccc21` [Example 1], in test [2] (ST88 cells), the “levels of phospho-ERK after treatment (in words)” value is listed as “decreased levels”. For the same molecule, the results for the concentration for a half-maximal effect (EC50) (in test [2] (ST88 cells (NF1+/−)); in the test on ST88 cells [4] (ST88 cells (NF1+/−)); in test [5] (ST88 cells (NF1+/−))) were 185 nM, 207 nM and 150 nM, respectively. Further, the “dose giving maximal suppression of hemoglobin content” value in test [3] is listed as 50 mg/kg. Also, the “hemoglobin content of Matrigel plug (in words)” value in test [3] is on record as “dose-dependent decrease”. In the test with ST88 cells [4] (ST88 cells), the “effect on proliferation (in words)” value was “inhibition of proliferation”. Also, the “levels of phospho-MEK after treatment (in words)” value in test [5] (ST88 cells) is on record as “decreased levels”.
